What follows are compounds tested on IL-5 production (assay: In vitro inhibition of IL-5 production in human blood (phytohemagglutinin-stimulated whole blood, ELISA)). Details: test dose 1×10^−6 M, 48 hours.
Assay type: cell-based
Summary of the method: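 Heparinised blood from healthy male donors, diluted threefold in RPMI 1640, preincubated 60 min at 37° C with compound (0.02% DMSO vehicle), then stimulated with 2 μg/mL phytohemagglutinin for 48 h. Supernatant IL-5 measured by ELISA; percentage inhibition at 1×10^−6 M or 1×10^−5 M.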
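Note: values marked with an asterisk were tested at 10 µM and unmarked values at 1 µM.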

Structure (SMILES)	% inh. (percentage inhibition of IL-5 production) [%]
O=c1cnn(-c2cc(Cl)c(C(Sc3ccncn3)c3ccc(Cl)cc3)c(Cl)c2)c(=O)[nH]1 (racemic) [Compound 409]	88
CC(c1ccc(Cl)c(C(F)(F)F)c1)(c1nc(-c2ccccc2)c(-c2ccccc2)s1)c1c(Cl)cc(-n2ncc(=O)[nH]c2=O)cc1Cl (racemic) [Comp 237]	82
O=c1cnn(-c2cc(Cl)c(C(Sc3ncccn3)c3ccc(Cl)c(C(F)(F)F)c3)c(Cl)c2)c(=O)[nH]1 (racemic) [Compound 341]	96
O=c1cnn(-c2cc(Cl)c(C(Sc3nc4ccc([N+](=O)[O-])cc4s3)c3ccc(Cl)c(C(F)(F)F)c3)c(Cl)c2)c(=O)[nH]1 (centres unmarked) [Compound 388]	90
Cn1c(C(c2ccc(Cl)cc2)c2c(Cl)cc(-n3ncc(=O)[nH]c3=O)cc2Cl)cnc1-c1ccccc1 (centres unmarked) [Comp 430]	89
O=c1cnn(-c2cc(Cl)c(C(c3ccc(Cl)cc3)c3nnc(-c4ccco4)o3)c(Cl)c2)c(=O)[nH]1 (racemic) [Compound 161]	91
Cc1cccc(-c2nc(C(c3ccc(Cl)cc3)c3c(Cl)cc(-n4ncc(=O)[nH]c4=O)cc3Cl)cs2)c1 (racemic) [Compound 372]	86
NC(c1ccc(Cl)cc1)(c1nc2ccccc2s1)c1ccc(-n2ncc(=O)[nH]c2=O)cc1Cl (centres unmarked) [Comp 416]	79
CN1CCC(NC(c2ccc(Cl)cc2)c2ccc(-n3ncc(=O)[nH]c3=O)cc2Cl)CC1 (racemic) [Compound 48, (±)-2-[3-chloro-4-[(4-chlorophenyl)[(1-methyl)-4-piperidinyl)amino]methyl]phenyl]-1,2,4-triazine-3,5(2H,4H)-dione]	29
Cl.O=c1cnn(-c2cc(Cl)c(C(c3ccc(Cl)cc3)c3nc(C4CCNCC4)cs3)c(Cl)c2)c(=O)[nH]1 (racemic) [Compound 230, (±)-2-[3,5-dichloro-4-[(4-chlorophenyl)[4-(4-piperidinyl)-2-thiazolyl]methyl]phenyl]-1,2,4-triazin-3,5-(2H,4H)-dione monohydrochloride]	79
O=c1cnn(-c2ccc(C(c3ccc(Cl)cc3)c3nc(-c4ccccc4)no3)c(Cl)c2)c(=O)[nH]1 (racemic) [Compound 125, (±)-2-[(3-chloro-4-[(4-chlorophenyl)(3-phenyl-1,2,4-oxadiazol-5-yl)methyl]phenyl]-1,2,4-triazine-3,5(2H,4H)-dione]	52
CN1CCN(C(=O)c2sc(C(c3ccc(Cl)cc3)c3c(Cl)cc(-n4ncc(=O)[nH]c4=O)cc3Cl)nc2-c2ccccc2)CC1 (racemic) [Comp 304]	35
O=c1cnn(-c2cc(Cl)c(C(c3ccc(Cl)cc3)c3nc(-c4ccc(Cl)c(Cl)c4)cs3)c(Cl)c2)c(=O)[nH]1 (racemic) [Comp 28]	73
O=c1cnn(-c2ccc(C(c3ccc(Cl)cc3)c3nnc(-c4ccccc4)s3)c(Cl)c2)c(=O)[nH]1 (centres unmarked) [Comp 414]	30
Nc1ccc(SC(c2ccc(Cl)c(C(F)(F)F)c2)c2c(Cl)cc(-n3ncc(=O)[nH]c3=O)cc2Cl)cc1 (centres unmarked) [Compound 393]	93
CCOC(=O)c1csc(C(c2ccc(Cl)cc2)c2c(Cl)cc(-n3ncc(=O)[nH]c3=O)cc2Cl)n1 (racemic) [Comp 27]	64

Structure (SMILES)	% inh. (percentage inhibition of IL-5 production) [%]
COCCNCc1sc(C(c2ccc(Cl)cc2)c2c(Cl)cc(-n3ncc(=O)[nH]c3=O)cc2Cl)nc1-c1ccccc1 (racemic) [Comp 316]	85
O=c1cnn(-c2cc(Cl)c(C(c3ccc(Cl)cc3)c3nnc(C4CCCCC4)o3)c(Cl)c2)c(=O)[nH]1 (racemic) [Compound 159]	87
CN1CCCC(c2nnc(C(c3ccc(Cl)cc3)c3c(Cl)cc(-n4ncc(=O)[nH]c4=O)cc3Cl)o2)C1 (mixture of isomers) [Compound 196]	35
Cc1nc(-c2ccccc2)c(C(c2ccc(Cl)cc2)c2ccc(-n3ncc(=O)[nH]c3=O)cc2)s1 (racemic) [Compound 146]	83
O=c1cnn(-c2cc(Cl)c(C(c3ccc(Cl)cc3)c3nc(-c4ccccc4)c(COC4CCCCC4)s3)c(Cl)c2)c(=O)[nH]1 (racemic) [Comp 310]	79
O=c1cnn(-c2ccc(C(Sc3nccs3)c3ccc(Cl)cc3)c(Cl)c2)c(=O)[nH]1 (racemic) [Compound 63]	68
CN1CCC(C(=O)Cc2sc(C(c3ccc(Cl)cc3)c3c(Cl)cc(-n4ncc(=O)[nH]c4=O)cc3Cl)nc2-c2ccccc2)CC1 (racemic) [Comp 283]	93
O=c1cnn(-c2cc(Cl)c(C(c3ccc(Cl)cc3)c3nnc(-c4ccccc4)s3)c(Cl)c2)c(=O)[nH]1 (centres unmarked) [Comp 427]	72
COCCNC(=O)Cc1sc(C(c2ccc(Cl)cc2)c2c(Cl)cc(-n3ncc(=O)[nH]c3=O)cc2Cl)nc1-c1ccccc1 (racemic) [Comp 320]	94
CN(C)CCNC(=O)c1sc(C(c2ccc(Cl)cc2)c2c(Cl)cc(-n3ncc(=O)[nH]c3=O)cc2Cl)nc1-c1ccccc1.O (racemic) [Comp 312]	57
Cc1cc(C(c2nc(-c3ccccc3)cs2)c2c(Cl)cc(-n3ncc(=O)[nH]c3=O)cc2Cl)ccc1Cl (racemic) [Comp 269]	90
CCOC(=O)c1nnc(C(c2ccc(Cl)cc2)c2c(Cl)cc(-n3ncc(=O)[nH]c3=O)cc2Cl)o1 (racemic) [Compound 186]	8
Cc1ccc(-c2nnc(C(c3ccc(Cl)cc3)c3c(Cl)cc(-n4ncc(=O)[nH]c4=O)cc3Cl)o2)cc1 (racemic) [Compound 177]	69
O=c1cnn(-c2ccc(C(Sc3nc4cccnc4s3)c3ccc(Cl)cc3)c(Cl)c2)c(=O)[nH]1 (racemic) [Compound 81]	76
CN1CCC(N(C)Cc2sc(C(c3ccc(Cl)cc3)c3c(Cl)cc(-n4ncc(=O)[nH]c4=O)cc3Cl)nc2-c2ccccc2)CC1 (racemic) [Comp 322]	96
O=c1cnn(-c2cc(Cl)c(C(c3ccc(Cl)cc3)c3nc(-c4ccccc4)c(CN4CCC(N5CCCCC5)CC4)s3)c(Cl)c2)c(=O)[nH]1 (racemic) [Comp 321]	92

Same assay, conditions: test dose 1×10^−6 M, 48 hours, read-out: % inh. (percentage inhibition of IL-5 production)

Structure (SMILES)	inhibition at 1 µM [%]
O=c1cnn(-c2cc(Cl)c(C(c3ccc(Cl)cc3)c3nccs3)c(Cl)c2)c(=O)[nH]1 (racemic) [Compound 39, (±)-2-[3,5-dichloro-4-[(4-chlorophenyl)-2-thiazolylmethyl]-phenyl]-1,2,4-triazine-3,5(2H,4H)-dione]	68
CC(C)COC(c1ccc(Cl)cc1)c1ccc(-n2ncc(=O)[nH]c2=O)cc1Cl (racemic) [Compound 133, (±)-2-[3-chloro-4-[(4-chloro-phenyl)(2-methylpropoxy)methyl]phenyl]-1,2,4-triazine-3,5(2H,4H)-dione]	50
O=c1cnn(-c2ccc(C(c3ccc(Cl)cc3)c3cccnc3)c(Cl)c2)c(=O)[nH]1 (racemic) [Compound 124, (±)-2-[3-chloro-4-[(4-chlorophenyl)-3-pyridinylmethyl]phenyl]-1,2,4-triazine-3,5(2H,4H)-dione]	42
